From patent publication US7517902B2, “Substituted indazoles, compositions containing the same, and the preparation and use thereof” (Aventis Pharma S.A., priority 2004, dated 2009)

Legend:
[1] = target: T1, human KDR enzyme (Homo sapiens, UniProt P35968); assay: KDR substrate phosphorylation assay (scintillation, 96-well plate); type: biochemical
T1 construct: The cytoplasmic domain of the human KDR enzyme was cloned in the form of a GST fusion; GST; made in house; host or cells: SF21 insect cells (baculovirus, pFastBac)
T1 sequence (P35968 786-1356 limits assumed): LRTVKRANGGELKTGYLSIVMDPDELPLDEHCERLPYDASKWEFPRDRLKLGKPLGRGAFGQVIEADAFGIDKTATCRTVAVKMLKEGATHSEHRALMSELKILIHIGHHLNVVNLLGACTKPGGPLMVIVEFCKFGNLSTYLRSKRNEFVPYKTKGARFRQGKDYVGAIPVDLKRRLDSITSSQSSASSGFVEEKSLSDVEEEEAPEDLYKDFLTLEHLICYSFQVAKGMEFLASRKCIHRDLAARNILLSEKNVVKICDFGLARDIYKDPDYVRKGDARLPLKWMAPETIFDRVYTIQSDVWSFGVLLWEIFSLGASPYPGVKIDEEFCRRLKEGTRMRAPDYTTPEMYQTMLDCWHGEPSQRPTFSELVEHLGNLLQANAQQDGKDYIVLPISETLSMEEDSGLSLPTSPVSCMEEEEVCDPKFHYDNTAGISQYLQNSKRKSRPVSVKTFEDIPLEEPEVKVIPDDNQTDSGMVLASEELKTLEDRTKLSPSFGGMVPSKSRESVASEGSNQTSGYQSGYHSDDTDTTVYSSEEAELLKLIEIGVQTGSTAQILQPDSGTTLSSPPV
Protocol: The inhibitory effect of the compounds is determined in an assay of substrate phosphorylation by the KDR enzyme in vitro using a scintillation technique (96-well plate, NEN).
The cytoplasmic domain of the human KDR enzyme was cloned in the form of a GST fusion into the baculovirus expression vector pFastBac. The protein was expressed in SF21 cells and purified to approximately 60% homogeneity.
The KDR kinase activity is measured in 20 mM MOPS, 10 mM MgCl2, 10 mM MnCl2, 1 mM DTT, 2.5 mM EGTA, 10 mM β-glycerophosphate, pH=7.2, in the presence of 10 mM MgCl2, 100 μM Na3VO4, 1 mM NaF. 10 μl of the compound are added to 70 μl of kinase buffer, containing 100 ng of KDR enzyme at 4° C. The reaction is triggered by adding 20 μl of solution containing 2 μg of substrate (SH2-SH3 fragment of PLCγ expressed in the form of a GST fusion protein), 2 μCi γ^33P[ATP] and 2 μM cold ATP. After 1 hour of incubation at 37° C., the reaction is stopped by adding 1 volume (100 μl) of 200 mM EDTA. The incubation buffer is withdrawn and the wells are washed three times with 300 μl of PBS. The radioactivity is measured in each well using a Top Count NXT radioactivity counter (Packard).
The background noise is determined by measuring the radioactivity in four different wells containing the radioactive ATP and the substrate alone.
A control for total activity is measured in four different wells containing all of the reagents (γ^33P-[ATP], KDR and PLCγ substrate), but in the absence of compound.
The inhibition of KDR activity with the compound of the invention is expressed in percentage inhibition of the control activity determined in the absence of compound.
The compound SU5614 (Calbiochem) (1 μM) is included in each plate as an inhibition control.

[2] = target: T2, human Tie2 (Homo sapiens, UniProt Q02763); assay: Tie2 assay of PLC phosphorylation (FlashPlate); type: biochemical; conditions: read-out: IC 50 TIE2
T2 construct: amino acids of the intracellular domain 776-1124; made in house
T2 sequence (Q02763 776-1124): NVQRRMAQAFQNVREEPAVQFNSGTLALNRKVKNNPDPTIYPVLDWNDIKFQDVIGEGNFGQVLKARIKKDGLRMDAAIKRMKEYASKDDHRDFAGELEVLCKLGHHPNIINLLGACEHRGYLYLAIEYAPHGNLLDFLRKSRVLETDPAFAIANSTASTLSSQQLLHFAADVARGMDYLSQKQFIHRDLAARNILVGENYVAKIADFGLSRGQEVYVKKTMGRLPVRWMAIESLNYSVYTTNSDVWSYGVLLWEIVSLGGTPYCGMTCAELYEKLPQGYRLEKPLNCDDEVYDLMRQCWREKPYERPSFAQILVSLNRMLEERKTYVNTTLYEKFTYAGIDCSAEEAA
Protocol: The coding sequence of human Tie2, corresponding to the amino acids of the intracellular domain 776-1124, was generated by PCR, using the cDNA isolated from human placenta as a model. This sequence was introduced into a baculovirus expression vector pFastBacGT in the form of a GST fusion protein.
The inhibitory effect of the molecules is determined in an assay of PLC phosphorylation by Tie2 in the presence of GST-Tie2 purified to approximately 80% homogeneity. The substrate is composed of the SH2-SH3 fragments of PLC expressed in the form of a GST fusion protein.
The kinase activity of Tie2 is measured in a 20 mM MOPS buffer, pH 7.2, containing 10 mM MgCl2, 10 mM MnCl2, 1 mM DTT, 10 mM of glycerol-phosphate. In a 96-well FlashPlate plate, kept on ice, a reaction mixture is deposited which is composed of 70 μl of kinase buffer containing 100 ng of GST-Tie2 enzyme per well. Subsequently 10 μl of the test molecule diluted to a concentration of 10% maximum in DMvSO are added. For a given concentration, each measurement is carried out in quadruplicate. The reaction is initiated by adding 20 μl of solution containing 2 μg of GST-PLC, 2 μM of cold ATP and 1 μCi of ^33P[ATP]. After 1 hour of incubation at 37° C., the reaction is terminated by adding 1 volume (100 μl) of 200 mM EDTA. Following removal of the incubation buffer, the wells are washed three times with 300 μl of PBS. The radioactivity is measured on a Wallac MicroBeta 1450.
The inhibition of Tie2 activity is calculated and expressed as a percentage inhibition relative to the control activity determined in the absence of compound.

[3] = target: T3, Aurora2 (Homo sapiens, UniProt O14965); assay: Aurora2 enzyme assay, NuMA substrate phosphorylation (Flashplate); type: biochemical; conditions: read-out: IC 50 Aurora2
T3 construct: Aurora 2: whole recombinant protein comprising an N-terminal histidine tail; His tag (histidine tail) (N); made in house; host or cells: E. coli
T3 sequence (O14965 1-403): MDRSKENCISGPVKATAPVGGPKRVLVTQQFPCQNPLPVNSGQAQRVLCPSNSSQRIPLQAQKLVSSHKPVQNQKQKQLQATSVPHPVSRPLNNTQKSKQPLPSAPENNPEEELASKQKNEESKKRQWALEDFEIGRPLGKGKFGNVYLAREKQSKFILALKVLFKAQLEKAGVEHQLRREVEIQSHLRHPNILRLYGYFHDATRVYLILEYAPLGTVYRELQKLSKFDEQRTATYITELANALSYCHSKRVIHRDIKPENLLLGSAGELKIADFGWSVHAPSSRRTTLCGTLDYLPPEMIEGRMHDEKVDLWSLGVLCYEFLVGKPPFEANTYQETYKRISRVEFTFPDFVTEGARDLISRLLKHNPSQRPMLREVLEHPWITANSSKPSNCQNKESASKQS
Protocol: The inhibitory effect of compounds with respect to the kinases Aurora1 and Aurora2 is determined by an enzyme assay employing radioactivity detection.
The kinase activity of Aurora 1 and Aurora 2 is evaluated by the phosphorylation of the substrate Numa-histidine in the presence of radiolabeled ATP ([^33P]ATP), using 96-well Flashplate plates in which nickel chelate is fixed to the surface of the microplate. The amount of ^33P phosphate incorporated in the NuMA substrate is proportional to the activity of the enzyme Aurora1 or Aurora2.
The proteins are produced in the protein production laboratory of the SanofiAventis group.
Aurora 2: whole recombinant protein comprising an N-terminal histidine tail, expressed in E. coli and purified to more than 82%.
NuMA (nuclear protein that associates with the mitotic apparatus) fragment of 424 amino acids, expressed in E. coli, whose N-terminal end has been labeled with histidine and used as a substrate for the two Aurora enzymes.
The microplates used are 96-well Flash-Plate plates with nickel chelate (Perkin Elmer, model SMP107).
The products for evaluation are incubated in a reaction volume of 100 μL per well in the presence of 10 nM of Aurora 1 or Aurora 2, 500 nM of NuMA substrate in a buffer composed of 50 mM of Tris/HCl (pH 7.5), 50 mM NaCl, 5 mM MgCl2 (Aurora-B) or 10 mM MgCl2 (Aurora-A) and 1 mM of DTT, at 37° C.
In each well, 80 μL of the enzyme/substrate incubation buffer are distributed, followed by 10 μL of the product to be evaluated, in variable concentrations. The reaction is initiated by adding 1 μM of final ATP containing 0.2 μCi of [^33P]ATP (10 μL). After 30 minutes of incubation, the reaction is terminated by simply removing the reaction buffer and each well is washed twice with 300 μl of the Tris/HCl buffer. The radioactivity is then measured in each well by means of a scintillation apparatus, Packard, Top count model.
The control enzyme activity of Aurora is expressed by the number of counts per minute obtained within 30 minutes, after deduction of the background noise (reaction mixture not containing the enzyme). The evaluation of the various test products is expressed in percentage inhibition of the Aurora activity relative to the control.

SMILES | IC50 [1] [nM] | IC50 [2] [nM] | IC50 [3] [nM] | melting point [°C]
O=C(Nc1ccc(-c2ccc3c(NC(=O)c4ccco4)n[nH]c3c2F)cc1)Nc1cc(C(F)(F)F)ccc1F [Example 17, 1-(4-{7-Fluoro-3-[(furan-2-yl)carbonylamino]-1H-indazol-6-yl}phenyl)-3-(2-fluoro-5-trifluoromethylphenyl)urea] | 29 | 8 | 60 | 152 to 153
O=C(Nc1ccc(-c2ccc3c(NC(=O)c4ccccc4)n[nH]c3c2F)cc1)Nc1cc(C(F)(F)F)ccc1F [Example 18, 1-(4-{7-Fluoro-3-[phenylcarbonylamino]-1H-indazol-6-yl}phenyl)-3-(2-fluoro-5-trifluoromethylphenyl)urea] | 77 | 26 | 346 | 206 to 207
